Measurements published in patent US5391800A, “Method for inhibition of cell motility by sphingosine-1-phosphate, its derivatives and mimetics and method of synthesizing sphingosine-1-phosphate and its derivatives” (The Biomembrane Institute, priority 1993, dated 1995).

Columns and labels:
[1] = Toxicity to human neutrophils, trypan blue exclusion; assay type: cell-based; settings: human, neutrophils; neutrophil; 45 μM; 1 hour incubation; control 99; read-out: Cell viability (%)
Method: (§1) Effects of SPN derivatives on protein kinase C activity and cell growth of B16/F1 cells was also investigated. […] Toxicity of these compounds to B16/F1 cells and human neutrophils was also examined using a trypan blue exclusion assay after 1 hour incubation with the compounds.

human neutrophils = experiment: as above; assay type: cell-based; settings: 45-50 μM; human neutrophils; 1 hour
Method: as §1

B16/F10 cells = experiment: Chemotactic motility of B16/F10 cells through MATRI-GEL-coated transwell filter; assay type: cell-based, mouse
Method: (§2) The assays for determining chemotactic cell motility and chemoinvasion can be performed using transwell plates with a polycarbonate membrane filter (pore size 8 μm) (Costar Scientific, Cambridge, Mass.). Aliguots, e.g., 50 μl, of an aqueous solution of MATRI-GEL (Collaborative Research, Bedford, Mass.) containing SPN-1-P or other inhibitor (e.g., 20 μg/ml for chemotactic motility assay or 200 μg/ml for chemoinvasion assay), is added to each well and dried overnight. The filter is then fitted onto the lower chamber plate. The lower chamber can contain conditioned medium (CM) (i.e., medium used for splenic stromal cell culture, and containing motility factor secreted by these cells), e.g., 0.6 ml, with or without SPN-1-P or other inhibitor. To the upper chamber is added, e.g., about 100 μl, of cell suspension (5×10^4 cells/ml for invasion assay, 5×10^5 cells/ml for motility assay), which is then incubated in 5% CO2 at 37° C. for 70-72 hours (invasion assay) or 20 hours (motility assay). After incubation, cells remaining in the upper chamber are wiped off with a cotton swab, and cells which had migrated to the lower chamber side of the filter are fixed in methanol for 30 seconds and stained with 0.05% toluidine blue. The filter is removed, the stain is solubilized in 10% acetic acid (e.g., 0.1 ml for invasion assay, 0.5 ml for motility assay), and color intensity (optical density) is quantitated by ELISA reading at 630 nm. Using SPN-1-P, a linear relationship was observed between cell number and toluidine blue optical density (FIG. 7).
(§3) Assays were performed using transwell plates with polycarbonate membrane filters (pore size 8 μm) (Costar Scientific, Cambridge, Mass.). 50 μl aliguots of an aqueous solution of MATRI-GEL (Collaborative Research, Bedford, Mass.) containing 20 μg/ml (for chemotactic motility assay) or 200 μg/ml (for chemoinvasion assay) were added to each well and dried overnight. The filter was fitted onto the lower chamber plate. The lower chamber contained 0.6 ml conditioned medium (CM) (i.e., medium used for splenic stromal cell culture, and containing motility factor secreted by these cells) with or without the suspected inhibitor. To the upper chamber was added 100 μl of cell suspension (5×10^4 cells/ml for invasion assay, 5×10^5 cells/ml for motility assay), which was then incubated in 5% CO2 at 37° C. for 70-72 hours (invasion assay) or 20 hours (motility assay). After incubation, cells remaining in the upper chamber were wiped off with a cotton swab, and cells which had migrated to the lower chamber side of the filter were fixed in methanol for 30 seconds and stained with 0.05% toluidine blue. The filter was removed, the stain was solubilized in 10% acetic acid (0.1 ml for invasion assay, 0.5 ml for motility assay), and color intensity (optical density) was quantitated by ELISA reading at 630 nm. A linear relationship was observed between cell number and toluidine blue optical density (FIG. 7.).
(§4) In experiments with different quantities of MATRI-GEL, cell migration through transwell filter was maximal with 1 μg/well was applied, and when CM was used (FIG. 8). Therefore, chemotactic cell motility, as affected by various SPN derivatives, was assayed under these conditions.
(§5) *Mean ± S.E. of percent relative to control (n = 4). Actual O.D. value
(§6) and 0.147 (HT1080). 6 × 10^4 cells were placed on a transwell
(§7) filter coated with 1.0 μg MATRIGEL in the upper chamber, and cultured
(§8) for 18 hours in the presence of CM and SPN1-P in the lower chamber.

Balb/c 3T3 fibroblasts = experiment: Chemotactic motility of Balb/c 3T3 fibroblasts through MATRI-GEL-coated transwell filter; assay type: cell-based; settings: Mus musculus, 18 hours, relative to control, mean ± S.E., n = 4
Method: as §2, §3, §4, §5, §6, §7, §8

[2] = test system: human fibrosarcoma HT1080 cells; experiment: Chemotactic motility of fibrosarcoma HT1080 cells through MATRI-GEL-coated transwell filter; assay type: cell-based
Method: as §2, §3, §4, §5, §6, §7, §8

mouse 3T3 cell = settings: literature; cited from earlier work

| SMILES | viability at 1 h, 45 µM [1] | Toxicity (human neutrophils) | activity at 0.001 µM (B16/F10 cells; Mus musculus, B16-F10, F10, 0.001 μM, 18 hours, relative to control, mean ± S.E., n = 4) | activity at 0.01 µM (B16/F10 cells; Mus musculus, B16-F10, F10, 0.01 μM, 18 hours, relative to control, mean ± S.E., n = 4) | activity at 0.1 µM (B16/F10 cells; Mus musculus, B16-F10, F10, 0.1 μM, 18 hours, relative to control, mean ± S.E., n = 4) | activity at 1 µM (B16/F10 cells; Mus musculus, B16-F10, F10, 1.0 μM, 18 hours, relative to control, mean ± S.E., n = 4) | Susceptibility of B16/F10 cells (chemotactic motility) (B16/F10 cells; Table V, in words) | activity at 0.001 µM (Balb/c 3T3 fibroblasts; BALB/c3T3, 0.001 μM) | activity at 0.01 µM (Balb/c 3T3 fibroblasts; BALB/c3T3, 0.01 μM) | activity at 0.1 µM (Balb/c 3T3 fibroblasts; BALB/c3T3, 0.1 μM) | activity at 1 µM (Balb/c 3T3 fibroblasts; BALB/c3T3, 1.0 μM) | activity at 5 µM (Balb/c 3T3 fibroblasts; BALB/c3T3, 5.0 μM) | activity at 0.001 µM ([2]; Homo sapiens, HT-1080, HT1080, 0.001 μM, 18 hours, relative to control, mean ± S.E., n = 4) | activity at 0.01 µM ([2]; Homo sapiens, HT-1080, HT1080, 0.01 μM, 18 hours, relative to control, mean ± S.E., n = 4) | activity at 0.1 µM ([2]; Homo sapiens, HT-1080, HT1080, 0.1 μM, 18 hours, relative to control, mean ± S.E., n = 4) | activity at 1 µM ([2]; Homo sapiens, HT-1080, HT1080, 1.0 μM, 18 hours, relative to control, mean ± S.E., n = 4) | activity at 5 µM ([2]; Homo sapiens, HT-1080, HT1080, 5.0 μM, 18 hours, relative to control, mean ± S.E., n = 4) | Susceptibility of human fibrosarcoma HT1080 cells (chemotactic motility) ([2]; Table V, in words) | Mouse 3T3 cell growth (mouse 3T3 cell) |
| --- | --- | --- | --- | --- | --- | --- | --- | --- | --- | --- | --- | --- | --- | --- | --- | --- | --- | --- | --- |
| CCCCCCCCCCCCC/C=C/[C@@H](O)[C@@H](N)COP(=O)(O)O [SPN-1-P, sphingosine-1-phosphate] | 98% | weak toxicity | 96 ± 21% | 10 ± 4% | 4 ± 2% | 4 ± 1% | high | 119 ± 9% | 125 ± 5% | 101 ± 10% | 40 ± 1% | 11 ± 1% | 100 ± 21% | 100 ± 30% | 115 ± 35% | 105 ± 14% | 64 ± 4% | low |  |
| CCCCCCCCCCCCC/C=C/[C@@H](O)[C@@H](N)CO [SPN, sphingosine] | 5% | very toxic |  |  |  |  |  |  |  |  |  |  |  |  |  |  |  |  | stimulation of mouse 3T3 cell growth |
